Activity calls are given as the source filed them.
Columns and labels:
[1] = target: Mothers against decapentaplegic homolog 3 (Homo sapiens, UniProt P84022); test: Smad3 binding inhibitors, lysate ELISA, dose response, cell lysate, secondary confirmation, chemiluminescent ELISA, HEK293 lysate (AID 1058); type: functional
[2] = target: Heat shock 70 kDa protein 1A (Homo sapiens, UniProt P0DMV8); test: Hsp70 inhibitors, SAR follow-up, biochemical, fluorescence polarization (AID 1072)
[3] = target: Heat shock cognate 71 kDa protein (Homo sapiens, UniProt P11142); test: In Vitro Hsc70 Dose Response Fluorescence Polarization Assay. [Related pubchem assays: 1072 ]
Sequence of Heat shock cognate 71 kDa protein (P11142 whole entry): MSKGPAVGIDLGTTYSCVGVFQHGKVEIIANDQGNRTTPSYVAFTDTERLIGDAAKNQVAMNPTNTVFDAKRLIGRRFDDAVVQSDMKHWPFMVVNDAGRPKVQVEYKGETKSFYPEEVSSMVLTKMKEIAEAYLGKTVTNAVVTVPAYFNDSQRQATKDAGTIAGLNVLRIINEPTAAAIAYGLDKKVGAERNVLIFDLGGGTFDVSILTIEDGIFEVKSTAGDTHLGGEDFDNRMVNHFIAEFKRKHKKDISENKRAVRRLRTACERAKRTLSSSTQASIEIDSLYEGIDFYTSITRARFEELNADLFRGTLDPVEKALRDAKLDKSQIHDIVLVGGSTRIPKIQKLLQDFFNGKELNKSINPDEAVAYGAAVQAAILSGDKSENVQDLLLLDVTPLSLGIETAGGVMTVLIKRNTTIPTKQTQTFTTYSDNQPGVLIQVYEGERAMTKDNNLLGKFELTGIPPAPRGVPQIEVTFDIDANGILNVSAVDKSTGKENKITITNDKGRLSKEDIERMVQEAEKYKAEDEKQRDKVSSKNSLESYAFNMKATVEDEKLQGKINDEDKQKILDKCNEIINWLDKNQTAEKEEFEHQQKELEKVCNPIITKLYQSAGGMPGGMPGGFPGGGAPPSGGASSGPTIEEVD

[4] = target: T1, Dual specificity protein phosphatase 6 (Rattus norvegicus, UniProt Q64346)
T1 sequence (Q64346 whole entry): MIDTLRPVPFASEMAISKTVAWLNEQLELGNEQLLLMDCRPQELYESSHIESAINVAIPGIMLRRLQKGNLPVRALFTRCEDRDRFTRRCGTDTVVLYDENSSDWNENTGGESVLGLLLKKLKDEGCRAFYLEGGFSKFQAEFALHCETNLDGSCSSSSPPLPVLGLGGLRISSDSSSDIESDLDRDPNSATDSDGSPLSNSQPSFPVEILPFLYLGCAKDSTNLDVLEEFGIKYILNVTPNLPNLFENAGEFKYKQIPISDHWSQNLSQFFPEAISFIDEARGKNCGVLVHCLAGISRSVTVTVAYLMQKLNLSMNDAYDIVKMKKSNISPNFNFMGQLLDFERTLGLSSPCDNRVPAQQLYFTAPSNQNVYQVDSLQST

[5] = target: T1, Dual specificity protein phosphatase 6; type: functional
[6] = target: T2, Tyrosine-protein phosphatase non-receptor type 7 (Homo sapiens, UniProt P35236); type: functional
T2 sequence (P35236 whole entry): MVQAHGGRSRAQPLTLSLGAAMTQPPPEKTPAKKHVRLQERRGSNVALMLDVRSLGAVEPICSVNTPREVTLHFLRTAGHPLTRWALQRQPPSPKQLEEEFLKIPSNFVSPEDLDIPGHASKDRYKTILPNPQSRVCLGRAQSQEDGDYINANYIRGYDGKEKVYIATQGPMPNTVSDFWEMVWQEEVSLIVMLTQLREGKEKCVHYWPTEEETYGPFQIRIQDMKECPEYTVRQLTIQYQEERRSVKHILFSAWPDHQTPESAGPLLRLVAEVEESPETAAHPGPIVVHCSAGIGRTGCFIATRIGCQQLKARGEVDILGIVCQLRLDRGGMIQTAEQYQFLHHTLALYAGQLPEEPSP

[7] = target: Glyceraldehyde-3-phosphate dehydrogenase (Homo sapiens, UniProt P04406)
Sequence of Glyceraldehyde-3-phosphate dehydrogenase (P04406 whole entry): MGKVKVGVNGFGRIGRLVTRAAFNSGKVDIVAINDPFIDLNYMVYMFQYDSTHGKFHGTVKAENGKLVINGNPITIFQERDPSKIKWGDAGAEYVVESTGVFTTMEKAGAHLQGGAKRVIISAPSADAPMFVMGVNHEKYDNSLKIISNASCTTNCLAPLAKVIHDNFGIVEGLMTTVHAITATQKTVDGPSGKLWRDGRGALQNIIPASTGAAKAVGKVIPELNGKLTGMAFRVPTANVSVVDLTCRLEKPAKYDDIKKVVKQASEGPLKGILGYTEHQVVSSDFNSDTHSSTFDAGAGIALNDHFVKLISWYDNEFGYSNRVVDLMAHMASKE

[8] = target: T3, Protein skinhead-1 (Caenorhabditis elegans, UniProt P34707); type: functional
T3 sequence (P34707 whole entry): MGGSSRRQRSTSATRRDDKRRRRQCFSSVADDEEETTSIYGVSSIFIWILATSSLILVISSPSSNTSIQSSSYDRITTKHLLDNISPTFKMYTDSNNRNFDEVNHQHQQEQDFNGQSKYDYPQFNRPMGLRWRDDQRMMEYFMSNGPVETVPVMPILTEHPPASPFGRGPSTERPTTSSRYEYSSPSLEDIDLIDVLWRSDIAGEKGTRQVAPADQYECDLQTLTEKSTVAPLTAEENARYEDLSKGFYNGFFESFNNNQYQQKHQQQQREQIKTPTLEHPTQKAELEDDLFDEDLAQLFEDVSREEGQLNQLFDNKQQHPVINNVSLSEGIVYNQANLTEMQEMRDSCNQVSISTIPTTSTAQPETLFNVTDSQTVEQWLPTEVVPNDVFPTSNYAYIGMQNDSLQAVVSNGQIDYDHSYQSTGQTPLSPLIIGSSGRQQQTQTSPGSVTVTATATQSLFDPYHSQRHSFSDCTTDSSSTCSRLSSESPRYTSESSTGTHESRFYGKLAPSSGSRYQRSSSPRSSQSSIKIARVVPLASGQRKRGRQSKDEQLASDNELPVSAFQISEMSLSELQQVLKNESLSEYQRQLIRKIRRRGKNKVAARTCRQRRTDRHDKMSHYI

[9] = Counterscreen for IDE inhibitors: Luminescence-based cell-based high throughput dose response assay to identify compounds that are cytotoxic to HEK cells. [Related pubchem assays: 434962 (Primary screen (IDE inhibitors in singlicate)), 449730 (Counterscreen (Cytotoxicity in triplicate)), 435028 (Confirmation (IDE inhibitors in triplicate)) …; type: functional; details: HEK293
[10] = target: T4, Insulin-degrading enzyme (Homo sapiens, UniProt P14735); test: Dose Response: Fluorescence polarization-based cell-based high throughput dose response assay for inhibitors of insulin-degrading enzyme (IDE). [Related pubchem assays: 434962 (Primary screen (IDE inhibitors in singlicate)), 449730 (Counterscreen (Cytotoxicity in triplicate)), 435028 (Confirmation (IDE inhibitors in triplicate)), 434984 (Summary …; type: functional
T4 sequence (P14735 whole entry): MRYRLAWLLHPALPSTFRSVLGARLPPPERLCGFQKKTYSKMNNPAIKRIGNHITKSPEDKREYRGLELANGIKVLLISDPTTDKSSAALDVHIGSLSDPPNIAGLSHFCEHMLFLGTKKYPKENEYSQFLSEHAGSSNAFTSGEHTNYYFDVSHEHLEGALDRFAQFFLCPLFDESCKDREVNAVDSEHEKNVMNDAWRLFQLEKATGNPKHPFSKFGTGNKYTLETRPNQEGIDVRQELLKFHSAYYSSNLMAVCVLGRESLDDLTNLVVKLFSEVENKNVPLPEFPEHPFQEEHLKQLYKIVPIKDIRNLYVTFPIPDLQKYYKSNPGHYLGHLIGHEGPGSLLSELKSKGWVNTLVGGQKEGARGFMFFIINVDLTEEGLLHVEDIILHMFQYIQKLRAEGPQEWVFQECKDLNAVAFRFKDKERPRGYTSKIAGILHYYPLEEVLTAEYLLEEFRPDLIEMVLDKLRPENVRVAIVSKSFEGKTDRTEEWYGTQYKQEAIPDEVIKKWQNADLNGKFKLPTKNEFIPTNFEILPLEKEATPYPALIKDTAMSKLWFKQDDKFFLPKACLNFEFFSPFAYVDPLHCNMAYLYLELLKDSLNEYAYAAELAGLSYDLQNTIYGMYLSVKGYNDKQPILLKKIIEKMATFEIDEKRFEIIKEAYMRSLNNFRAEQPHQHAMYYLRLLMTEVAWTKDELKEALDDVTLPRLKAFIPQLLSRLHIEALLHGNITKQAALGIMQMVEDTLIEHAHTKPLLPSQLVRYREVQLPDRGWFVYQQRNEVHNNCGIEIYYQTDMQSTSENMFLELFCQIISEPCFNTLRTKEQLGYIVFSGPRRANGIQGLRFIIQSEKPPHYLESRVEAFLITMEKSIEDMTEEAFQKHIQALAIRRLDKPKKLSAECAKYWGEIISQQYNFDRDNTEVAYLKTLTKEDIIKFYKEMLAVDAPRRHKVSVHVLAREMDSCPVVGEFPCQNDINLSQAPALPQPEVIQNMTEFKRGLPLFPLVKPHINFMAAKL

[11] = enhancers of respiration in Yfh1-depleted yeast, dose response, Friedreich's ataxia, plus single-dose screen (AID 1465); type: functional;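 also: yeast depleted of Yfh1p frataxin homolog grown on glycerol needing respiration; WST-1 tetrazolium dye reduction as measure of cellular dehydrogenase metabolic activity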
[12] = target: T5, Rac GTPase-activating protein 1 (Homo sapiens, UniProt Q9H0H5); test: MgcRacGAP GTPase-activating activity inhibitors, confirmation, biochemical, ADP Hunter fluorescence, primary and confirmatory (AID 624330); type: functional
T5 sequence (Q9H0H5 whole entry): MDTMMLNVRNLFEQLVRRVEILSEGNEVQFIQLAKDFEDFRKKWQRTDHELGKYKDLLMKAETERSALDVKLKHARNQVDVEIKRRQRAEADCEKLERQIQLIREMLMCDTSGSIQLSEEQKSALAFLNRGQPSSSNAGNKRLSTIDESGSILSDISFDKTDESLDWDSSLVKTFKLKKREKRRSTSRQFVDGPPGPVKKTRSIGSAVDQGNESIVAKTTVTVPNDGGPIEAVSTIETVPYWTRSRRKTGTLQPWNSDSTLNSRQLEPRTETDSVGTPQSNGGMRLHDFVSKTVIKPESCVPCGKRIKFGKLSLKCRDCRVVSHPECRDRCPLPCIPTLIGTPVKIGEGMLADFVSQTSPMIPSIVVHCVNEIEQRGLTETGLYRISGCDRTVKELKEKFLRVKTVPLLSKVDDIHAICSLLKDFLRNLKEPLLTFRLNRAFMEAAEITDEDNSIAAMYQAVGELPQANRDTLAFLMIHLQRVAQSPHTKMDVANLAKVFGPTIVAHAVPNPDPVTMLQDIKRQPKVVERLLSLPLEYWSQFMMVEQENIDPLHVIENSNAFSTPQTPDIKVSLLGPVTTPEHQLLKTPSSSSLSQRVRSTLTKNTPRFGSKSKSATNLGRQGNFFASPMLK

[13] = A Cell Based Secondary Assay To Explore Cytotoxicity of Compounds that Sensitize Mycobacterium Tuberculosis to Beta-Lactam Antibiotics.; type: functional
[14] = target: Lysosomal acid glucosylceramidase (Homo sapiens, UniProt P04062); test: Dose response cell-based high throughput screening assay to identify enhancers of beta-glucosidase activity. [Related pubchem assays: 784 ]; type: functional
Sequence of Lysosomal acid glucosylceramidase (P04062 whole entry): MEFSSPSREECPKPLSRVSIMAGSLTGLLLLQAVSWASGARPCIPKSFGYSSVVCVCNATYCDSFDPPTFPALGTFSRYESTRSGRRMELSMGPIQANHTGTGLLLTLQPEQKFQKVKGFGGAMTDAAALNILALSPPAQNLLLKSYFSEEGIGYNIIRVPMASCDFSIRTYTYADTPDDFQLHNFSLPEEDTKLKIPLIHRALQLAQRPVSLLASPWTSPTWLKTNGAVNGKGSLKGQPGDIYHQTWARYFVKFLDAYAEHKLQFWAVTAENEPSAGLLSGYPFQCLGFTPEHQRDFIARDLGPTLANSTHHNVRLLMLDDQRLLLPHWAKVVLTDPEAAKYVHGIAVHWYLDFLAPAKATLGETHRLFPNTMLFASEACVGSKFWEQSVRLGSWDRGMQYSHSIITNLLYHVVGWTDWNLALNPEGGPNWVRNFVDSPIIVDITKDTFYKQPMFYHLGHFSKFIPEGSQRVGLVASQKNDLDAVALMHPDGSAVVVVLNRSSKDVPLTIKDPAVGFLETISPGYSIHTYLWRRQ

Sequence of Heat shock 70 kDa protein 1A (P0DMV8 whole entry): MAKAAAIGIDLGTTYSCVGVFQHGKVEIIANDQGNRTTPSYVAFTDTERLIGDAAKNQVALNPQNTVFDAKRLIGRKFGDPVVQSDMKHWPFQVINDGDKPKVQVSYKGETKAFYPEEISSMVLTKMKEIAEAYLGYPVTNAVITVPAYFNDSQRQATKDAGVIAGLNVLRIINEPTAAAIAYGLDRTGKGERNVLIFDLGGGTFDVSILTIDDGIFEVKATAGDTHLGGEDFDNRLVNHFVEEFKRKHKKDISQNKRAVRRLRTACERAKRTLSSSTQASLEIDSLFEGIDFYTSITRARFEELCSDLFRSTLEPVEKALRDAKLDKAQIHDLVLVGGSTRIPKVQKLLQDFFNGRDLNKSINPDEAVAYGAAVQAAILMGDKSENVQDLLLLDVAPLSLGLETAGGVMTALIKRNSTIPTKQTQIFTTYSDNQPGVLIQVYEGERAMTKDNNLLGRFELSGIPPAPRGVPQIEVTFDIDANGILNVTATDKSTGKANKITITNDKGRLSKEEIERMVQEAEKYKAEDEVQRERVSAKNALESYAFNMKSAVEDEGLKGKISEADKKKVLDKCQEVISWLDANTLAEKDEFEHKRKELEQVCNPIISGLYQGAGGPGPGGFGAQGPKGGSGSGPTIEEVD
Sequence of Mothers against decapentaplegic homolog 3 (P84022 whole entry): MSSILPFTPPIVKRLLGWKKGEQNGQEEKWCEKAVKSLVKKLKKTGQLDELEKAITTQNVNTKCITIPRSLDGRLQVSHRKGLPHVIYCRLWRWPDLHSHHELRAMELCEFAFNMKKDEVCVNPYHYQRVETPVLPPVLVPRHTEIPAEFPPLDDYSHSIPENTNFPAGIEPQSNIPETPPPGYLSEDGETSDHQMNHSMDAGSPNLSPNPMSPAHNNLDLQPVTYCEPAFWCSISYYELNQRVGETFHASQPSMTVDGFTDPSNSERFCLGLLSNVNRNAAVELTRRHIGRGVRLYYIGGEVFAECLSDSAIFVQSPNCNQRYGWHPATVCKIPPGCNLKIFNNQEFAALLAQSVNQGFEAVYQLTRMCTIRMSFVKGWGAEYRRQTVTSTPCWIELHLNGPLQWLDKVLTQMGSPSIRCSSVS

Structure (SMILES): COc1cccc(C(c2cc3c(cc2O)OCO3)N2CCOCC2)c1O (centres undefined)
- IC50 [1]: > 40 µM (not active)

Structure (SMILES): O=C(O)C1Nc2cc(Cl)cc(Cl)c2C2C=CCC12 (centres undefined)
- IC50 [2]: 18.1 µM (active)
- IC50 [3]: 53 µM (active)
- IC50 [4]: 61.6 µM (active)
- IC50 [5]: > 100 µM (inactive)
- IC50 [6]: > 100 µM (not active)
- IC50 [7]: 62.7 µM (active)

Structure (SMILES): Cc1c(N2C(=O)/C(=C\c3ccc(N(C)C)cc3)N(C)C2=S)c(=O)n(-c2ccccc2)n1C
- IC50 [8]: 57.2 µM (inactive)
- IC50 [9]: 37.9 µM (not active)
- IC50 [10]: 13.9 µM (not active)
- EC50 [11]: > 100 µM (active)
- IC50 [12]: 74.4 µM (active)

Structure (SMILES): CCOc1ccc(/C=N/NC(=O)c2ccccc2O)cc1CN1CC2CC(C1)c1cccc(=O)n1C2 (centres undefined)
- CC50 [13]: 23 µM (active)

Structure (SMILES): CC(C)CCn1nnnc1C(c1ccccc1)N1CCC(C(N)=O)CC1 (centres undefined)
- EC50 [14]: > 10 µM (not active)

Reference: ChEMBL document CHEMBL1201862, “PubChem BioAssay data set” (2004)
